Read-outs that look alike come from different tables or passages of the source.
Tests used:
[1] = In vivo pharmacokinetics, intravenous; conditions: male C57 BL/6 mice, dose 2.00 mg/kg (Compound 1), 2.43 mg/kg (Compound 2); for Vd: male, C57 BL/6, mouse, iv
Procedure: (§1) The in vivo pharmacokinetic properties of Compound 1 by both intravenous and oral administration were evaluated in male C57 BL/6 mice. The in vivo pharmacokinetic properties of Compound 2 by both intravenous and oral administration were evaluated in male C57 BL/6 mice for comparison.
(§2) Animals were housed in cages with clean bedding. Certified rodent diet was provided. Water was available ad libitum. Environmental controls for the animal room were set to maintain a temperature of 22 to 25° C., humidity of 40-70% RH, and a 12-hour light /12-hour dark cycle. Normal healthy animals certified by the attending veterinarian were selected and acclimatized for minimum three days prior to initiation of study.
(§3) Procedure for Blood Withdrawal: Mice were anesthetized using gaseous anesthesia. Blood samples were collected through a capillary, guided in retro-orbital plexus. At each time point, blood samples from 3 mice of each respective group were collected. The blood samples were collected in pre-labeled tubes. 0.2 to 0.3 mL of blood were collected from each mouse. After collection of the blood samples at each time point, the samples were stored on ice prior to centrifugation. Blood samples were centrifuged within 15 minutes to separate plasma. Centrifugations was done at 1540 rcf (5000 rpm) at 4° C. for 10 minutes. The plasma was separated and transferred to pre-labeled micro-centrifuge tubes and promptly frozen at −80±10° C. until bioanalysis was performed. Samples were identified by test item, group, animal number, and collection time point.
(§4) To evaluate pharmacokinetic properties of intravenous delivery, nine male C57 BL/6 mice were administered 2.00 mg Compound 1/kg animal weight through the tail vein. The concentration of Compound 1 in the plasma of the animals was evaluated at 0.083, 0.25, 0.5, 1, 2, 4, 8, and 24 hr by taking blood samples from the mice. Compound 2 was similarly administered for comparison.

[2] = In vivo pharmacokinetics, oral; conditions: male C57 BL/6 mice
Procedure: as §1, §2, §3
as §4, with “oral” for “intravenous”, “10” for “2.00”, “by mouth.” for “through the tail vein.”, “at” for “at 0.083,”, “4, 6,” for “4,”, “samples.” for “samples from the mice.”

[3] = mouse, plasma, oral, dose 10.00 mg/kg (Compound 1), 12.01 mg/kg (Compound 2)

AUCExtra [1]: 0.48%
Vd ([1]; plasma, read-out: Vd): 4.55 L/kg
Vd ([1]; plasma, read-out: Vss): 2.32 L/kg
AUC(0-inf) ([1]; mouse, plasma): 2.82 µg·h/mL
AUC(0-t) ([1]; mouse, plasma): 2.81 µg·h/mL
C0 ([1]; mouse, plasma): 2.67 µg/mL
clearance ([1]; mouse, plasma): 0.86 L/h/kg
half-life ([1]; mouse, plasma): 3.67 h
MRT last ([1]; mouse, plasma, read-out: MRT0-last): 2.56 h
bioavailability ([2]; mouse, plasma, oral vs intravenous): 66.6%
AUC(0-inf) [2, 3]: 9.3 µg·h/mL
AUC(0-t) [2, 3]: 8.06 µg·h/mL
Cmax [2, 3]: 2.18 µg/mL
Tmax [2, 3]: 0.25 h
half-life [2, 3]: 9.46 h
MRT last ([2]; mouse, plasma, oral, dose 10.00 mg/kg (Compound 1), 12.01 mg/kg (Compound 2), read-out: MRT0-last): 6.61 h
AUCExtra ([2]; oral, dose 10.00 mg/kg (Compound 1), 12.01 mg/kg (Compound 2)): 13.38%
SMILES: CC(C)(CO)c1cc(-c2csc(-c3ccc(C(=O)N4CCC(O)CC4)cc3Cl)c2)ccn1 [Compound 2, reference compound]
